{"source": "ChEMBL document CHEMBL6074674", "about": "“Development of Novel Silicon-Based Hydrophobic Tags (SiHyT) for Targeted Proteins Degradation” (J Med Chem, 2024)", "key": {"HCC827 [1]": {"system": "HCC827", "experiment": "Antiproliferative activity against human HCC827 cells assessed as decrease in cell survival measured after 72 hrs by CCK-8 assay", "format": "functional, cell-based", "details": "HCC827, 72 h"}, "[2]": {"system": "E3 ubiquitin-protein ligase RNF149/Epidermal growth factor receptor (Homo sapiens), P00533+Q8NC42 [UNDEFINED MUTATION]", "sequence (P00533 whole entry, looked up, change not shown)": "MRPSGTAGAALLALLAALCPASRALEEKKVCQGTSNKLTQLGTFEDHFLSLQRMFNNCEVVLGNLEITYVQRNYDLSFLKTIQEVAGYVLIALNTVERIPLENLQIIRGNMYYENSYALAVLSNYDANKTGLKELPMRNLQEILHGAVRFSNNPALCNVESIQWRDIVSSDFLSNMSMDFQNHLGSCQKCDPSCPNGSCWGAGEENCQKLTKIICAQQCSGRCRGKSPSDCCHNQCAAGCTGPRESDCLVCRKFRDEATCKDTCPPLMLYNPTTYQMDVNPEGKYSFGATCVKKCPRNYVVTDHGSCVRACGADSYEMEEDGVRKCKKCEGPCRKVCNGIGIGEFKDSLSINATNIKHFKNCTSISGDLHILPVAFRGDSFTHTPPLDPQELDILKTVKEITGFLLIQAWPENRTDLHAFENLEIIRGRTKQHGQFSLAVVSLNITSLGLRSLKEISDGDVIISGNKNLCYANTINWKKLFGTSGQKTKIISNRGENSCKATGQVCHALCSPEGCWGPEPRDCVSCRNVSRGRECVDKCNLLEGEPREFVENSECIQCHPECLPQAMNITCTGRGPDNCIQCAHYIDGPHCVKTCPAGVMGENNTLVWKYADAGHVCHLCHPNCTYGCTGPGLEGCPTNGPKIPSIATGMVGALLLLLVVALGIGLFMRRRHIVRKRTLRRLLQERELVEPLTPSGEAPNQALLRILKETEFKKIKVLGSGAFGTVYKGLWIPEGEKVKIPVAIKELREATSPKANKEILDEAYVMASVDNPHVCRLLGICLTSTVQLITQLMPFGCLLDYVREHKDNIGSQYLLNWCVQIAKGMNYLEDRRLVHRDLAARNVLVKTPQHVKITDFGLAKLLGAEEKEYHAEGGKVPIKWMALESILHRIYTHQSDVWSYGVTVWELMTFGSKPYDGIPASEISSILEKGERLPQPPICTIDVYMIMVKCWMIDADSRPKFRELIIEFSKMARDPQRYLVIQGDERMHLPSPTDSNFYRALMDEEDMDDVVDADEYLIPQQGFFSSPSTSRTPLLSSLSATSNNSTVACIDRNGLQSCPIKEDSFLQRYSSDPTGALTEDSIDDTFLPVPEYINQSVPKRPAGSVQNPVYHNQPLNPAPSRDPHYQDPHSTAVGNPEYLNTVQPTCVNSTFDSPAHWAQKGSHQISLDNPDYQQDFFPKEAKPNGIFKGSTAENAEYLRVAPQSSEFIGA", "sequence (Q8NC42 whole entry, looked up, change not shown)": "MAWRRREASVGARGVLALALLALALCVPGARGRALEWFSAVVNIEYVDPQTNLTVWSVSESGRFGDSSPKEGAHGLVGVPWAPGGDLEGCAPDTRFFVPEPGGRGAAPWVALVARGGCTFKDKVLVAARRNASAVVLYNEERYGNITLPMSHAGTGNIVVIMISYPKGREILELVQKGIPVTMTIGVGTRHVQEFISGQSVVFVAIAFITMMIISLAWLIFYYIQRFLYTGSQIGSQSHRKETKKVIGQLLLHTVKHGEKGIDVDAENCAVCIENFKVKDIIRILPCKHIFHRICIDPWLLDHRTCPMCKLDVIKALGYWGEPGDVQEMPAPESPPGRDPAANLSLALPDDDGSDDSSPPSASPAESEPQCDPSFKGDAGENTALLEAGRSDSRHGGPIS", "experiment": "SiHyT-mediated degrader activity at RNF149/EGFR mutant in human HCC827 cels assessed as induction of EGFR degradation at 0.1 uM cells incubated in serum-free media for 8 hrs followed by incubation with compound for 24 hrs by western blot analysis", "format": "cell-based"}, "[3]": {"system": "E3 ubiquitin-protein ligase RNF149/Epidermal growth factor receptor (Homo sapiens), P00533+Q8NC42 [UNDEFINED MUTATION]", "experiment": "(§1) SiHyT-mediated degrader activity at RNF149/EGFR mutant in human HCC827 cells assessed as induction of EGFR degradation cells incubated in serum-free media for 8 hrs followed by incubation with compound for 24 hrs by western blot analysis", "format": "cell-based"}, "[4]": {"biological_target": "E3 ubiquitin-protein ligase RNF149/Epidermal growth factor receptor (Homo sapiens, UniProt P00533+Q8NC42)", "sequence (P00533 whole entry, looked up, change not shown)": "as the sequence (P00533 whole entry, looked up, change not shown) above", "sequence (Q8NC42 whole entry, looked up, change not shown)": "as the sequence (Q8NC42 whole entry, looked up, change not shown) above", "experiment": "as §1", "format": "cell-based"}, "[5]": {"system": "E3 ubiquitin-protein ligase RNF149/Epidermal growth factor receptor (Homo sapiens), P00533+Q8NC42 [UNDEFINED MUTATION]", "experiment": "SiHyT-mediated degrader activity at RNF149/EGFR mutant in human HCC827 cells assessed as induction of EGFR degradation by measuring decrease in EGFR level at 1 uM measured after 9 hrs by western blot analysis", "format": "cell-based"}, "[6]": {"system": "E3 ubiquitin-protein ligase RNF149/Epidermal growth factor receptor (Homo sapiens), P00533+Q8NC42 [UNDEFINED MUTATION]", "experiment": "SiHyT-mediated degrader activity at RNF149/EGFR mutant in human HCC827 cells assessed as induction of EGFR degradation by measuring decrease in EGFR level at 1 uM measured after 24 hrs by western blot analysis", "format": "cell-based"}, "[7]": {"system": "E3 ubiquitin-protein ligase RNF149/Epidermal growth factor receptor (Homo sapiens), P00533+Q8NC42 [UNDEFINED MUTATION]", "experiment": "SiHyT-mediated degrader activity at RNF149/EGFR mutant in human HCC827 cells assessed as induction of EGFR degradation by measuring decrease in EGFR expression level at 1 uM pretreated with lysosome inhibitor, 3-MA for 4 hrs followed by incubation with compound for 24 hrs by western blot analysis", "format": "cell-based"}, "[8]": {"system": "E3 ubiquitin-protein ligase RNF149/Epidermal growth factor receptor (Homo sapiens), P00533+Q8NC42 [UNDEFINED MUTATION]", "experiment": "SiHyT-mediated degrader activity at RNF149/EGFR mutant in human HCC827 cells assessed as induction of EGFR degradation by measuring decrease in EGFR expression level at 1 uM pretreated with E1 ligase inhibitor, PYR41 for 4 hrs followed by incubation with compound for 24 hrs by western blot analysis", "format": "cell-based"}, "[9]": {"system": "E3 ubiquitin-protein ligase RNF149/Epidermal growth factor receptor (Homo sapiens), P00533+Q8NC42 [UNDEFINED MUTATION]", "experiment": "SiHyT-mediated degrader activity at RNF149/EGFR mutant in human HCC827 cells assessed as induction of EGFR degradation by measuring decrease in half-time of EGFR at 1 uM incubated for 6 to 24 hrs in presence of protein synthesis inhibitor, cycloheximide by western blot analysis", "format": "cell-based", "details": "time 6-24 hrs"}, "PC-9 [10]": {"system": "PC-9", "experiment": "Antiproliferative activity against human PC-9 cells assessed as decrease in cell survival measured after 72 hrs by CCK-8 assay", "format": "functional, cell-based", "details": "PC-9, 72 h"}, "HCC827 [11]": {"system": "HCC827", "experiment": "Inhibition of colony formation in human HCC827 cells assessed as inhibition of malignant clonal growth at 0.5 to 1 uM measured after 7 days by crystal violet staining based analysis", "format": "functional, cell-based", "details": "dose 0.5-1 µM, time 7.0 day"}, "[12]": {"experiment": "Intrinsic clearance of the compound in mouse liver microsomes at 1 uM in presence of NADPH by LC-MS/MS analysis", "format": "ADME, Microsome", "details": "read-out: CLH"}, "[13]": {"experiment": "Half life of the compound in human liver microsomes at 1 uM in presence of NADPH by LC-MS/MS analysis", "format": "ADME, Microsome"}, "[14]": {"experiment": "Half life in ICR mouse at 1 mg/kg, iv by LC-MS/MS analysis", "format": "ADME, organism-based", "details": "in vivo"}, "[15]": {"experiment": "Cmax in ICR mouse at 10 mg/kg, po by LC-MS/MS analysis", "format": "ADME, organism-based", "details": "in vivo"}, "[16]": {"experiment": "AUC in ICR mouse at 10 mg/kg, po by LC-MS/MS analysis", "format": "ADME, organism-based", "details": "in vivo"}, "Mus musculus": {"system": "Mus musculus", "experiment": "In vivo induction of EGFR mutant degradation in tumor of mouse xenografted with human PC-9 cells assessed as decrease in EGFR expression at 10 mg/kg, po measured after 6 to 48 hrs by immunoblot analysis", "format": "functional, organism-based", "details": "time 6-48 hrs"}, "[17]": {"biological_target": "Epidermal growth factor receptor (Homo sapiens) (UniProt P00533)", "sequence (P00533 whole entry)": "as the sequence (P00533 whole entry, looked up, change not shown) above", "experiment": "Induction of EGFR mutant degradation in human PC-9 cells transfected with RNF149 shRNA at 1 uM by western blot analysis", "format": "cell-based"}, "PC-9 [18]": {"system": "PC-9", "experiment": "Binding affinity to RNF149/EGFR mutant in human PC-9 cells at 2 uM incubated for 4 hrs by CETSA analysis", "format": "cell-based"}, "HEK-293T": {"system": "HEK-293T", "experiment": "Cytotoxicity against human HEK293T cells assessed as reduction in cell viability", "format": "toxicity, cell-based"}, "MCF-10A": {"system": "MCF-10A", "experiment": "Cytotoxicity against human MCF-10A cells assessed as reduction in cell viability", "format": "toxicity, cell-based"}, "L02": {"system": "L02", "experiment": "Cytotoxicity against human LO2 cells assessed as reduction in cell viability", "format": "toxicity, cell-based"}}, "note": "Activity calls are given as the source filed them. The rule behind the calls is not given here.", "data": [{"smiles": "COc1cc2ncnc(Nc3ccc(F)c(Cl)c3)c2cc1OCCn1cc(CCCO[Si](c2ccccc2)(c2ccccc2)C(C)(C)C)nn1", "values": [{"measurement": "IC50", "setting": "HCC827 [1]", "value": 0.07, "unit": "µM"}, {"measurement": "Activity", "setting": "[2]", "value": 54.6, "unit": "%"}, {"measurement": "Activity", "setting": "[3]", "value": "Dose-dependent-effect"}, {"measurement": "DC50", "setting": "[4]", "value": 0.75, "unit": "µM"}, {"measurement": "Activity", "setting": "[5]", "value": "Active"}, {"measurement": "Activity", "setting": "[6]", "value": "Active"}, {"measurement": "Activity", "setting": "[7]", "value": "Active"}, {"measurement": "Activity", "setting": "[8]", "value": "inactive"}, {"measurement": "Activity", "setting": "[9]", "value": "Active"}, {"measurement": "IC50", "setting": "PC-9 [10]", "value": 0.34, "unit": "µM"}, {"measurement": "inhibition", "setting": "HCC827 [11]", "value": "Active"}, {"measurement": "CLint scaled at 1 µM", "setting": "[12]", "value": 21.9, "unit": "mL/min/kg"}, {"measurement": "half-life at 1 µM", "setting": "[13]", "value": "> 1", "unit": "h"}, {"measurement": "half-life", "setting": "[14]", "value": 2.18, "unit": "h"}, {"measurement": "Cmax", "setting": "[15]", "value": 683, "unit": "ng/mL"}, {"measurement": "AUC", "setting": "[16]", "value": 1876.65, "unit": "ng·mL·h"}, {"measurement": "Activity", "setting": "Mus musculus", "value": "Active"}, {"measurement": "Activity", "setting": "[17]", "value": "inactive"}, {"measurement": "Activity", "setting": "PC-9 [18]", "value": "Active"}, {"measurement": "Activity", "setting": "HEK-293T", "value": "Toxic"}, {"measurement": "Activity", "setting": "MCF-10A", "value": "Toxic"}, {"measurement": "Activity", "setting": "L02", "value": "Toxic"}]}]}
